Patent publication US20250263415A1, “TERTIARY AMIDE DERIVATIVES SUBSTITUTED WITH 4-MEMBERED RING STRUCTURE” (Sumitomo Pharma Co., Ltd., priority 2024, published 2025)

Assays:
[1] = biological target: hDAT (Homo sapiens (Human), UniProt Q01959); assay: Dopamine receptor inhibitory activity evaluation (binding assay, CHO-S/hDAT membranes); settings: off-target
Method: The binding evaluation assay was outsourced to Eurofins. Specifically, CHO—S/hDAT cells were homogenized in an incubation buffer consisting of 50 mmol/L Tris-HCl, pH 7.4, 100 mmol/L NaCl, 1 μmol/L Leupeptin, and 10 μmol/L PMSF. The membrane pellet obtained by centrifugation was resuspended in the incubation buffer to prepare a membrane preparation. The test compound (1-10 μmol/L DMSO solution), the membrane preparation, and 0.15 nmol/L […] were mixed and incubated at 4° C. for 180 minutes. The cell membrane-[^125I]RTI-55 complex was bound to a GF/B filter mat by vacuum filtration and washed with 50 mmol/L Tris-HCl, pH 7.4. The effect on the receptor was assessed by measuring radioactivity using a scintillation counter.

[2] = system: G-401 xenograft; assay: Drug efficacy evaluation by intravenous administration using G-401 xenograft mice model; type: in vivo; settings: G-401 xenograft model
Method: G-401 cells (ATCC) were intradermally transplanted into 4-7-week-old BALB/cAnNCrj-nu/nu mice (CAnN.Cg-Foxnl/CrlCrlj, Jackson Laboratory Japan) at 5×10^5 cells/mouse. After confirming the engraftment of G-401 cells 10-40 days after transplantation, the test compound suspended in a solvent such as 10 mmol/L glycine buffer solution (pH 2.0) was administered via the tail vein at least once a week at a dose of 0.015-20 mg/kg. The tumor volume was measured over time from the start of administration, and the effect of tumor volume reduction by administration of the test compound was evaluated. The tumor volume can be calculated from the following equation using the minor axis and major axis of the tumor measured with an electronic caliper (Mitutoyo).
A control administration group administered with only a solvent such as 10 mmol/L glycine buffer solution (pH 2.0) and a test compound administration group were compared, and the antitumor effect was evaluated by calculating T/C from the following equation.

[3] = system: G-401 xenograft; assay: Drug efficacy evaluation by oral administration using G-401 xenograft model mice; type: in vivo
Method: G-401 cells (ATCC) were intradermally transplanted into 4-7-week-old BALB/cAnNCrj-nu/nu mice (CAnN.Cg-Foxnl/CrlCrlj, Jackson Laboratory Japan) at 5×10^5 cells/mouse. After confirming the engraftment of G-401 cells 10-40 days after transplantation, the test compound suspended in a solvent such as 0.5% methylcellulose solution was orally administered twice a day at a dose of 1-100 mg/kg. The tumor volume was measured over time from the start of administration, and the effect of tumor volume reduction by administration of the test compound was evaluated. The tumor volume can be calculated from the following equation using the minor axis and major axis of the tumor measured with an electronic caliper (Mitutoyo).
A control administration group administered with only a solvent such as 0.5% methylcellulose solution and a test compound administration group were compared, and the antitumor effect was evaluated by calculating T/C from the following equation.

[4] = biological target: hSERT (Homo sapiens (Human), UniProt P31645); assay: Serotonin receptor inhibitory activity evaluation (binding assay, HEK293/hSERT membranes); settings: off-target
Method: The binding evaluation assay was outsourced to Eurofins. Specifically, HEK293/hSERT cells were homogenized in a buffer consisting of 100 mmol/L NaCl, 1 μmol/L Leupeptin, 10 μmol/L PMSF, and 50 mmol/L Tris-HCl (pH7.4). The membrane pellet obtained by centrifugation was resuspended in an incubation buffer consisting of 50 mmol/L Tris-HCl (pH 7.4), 120 mmol/L NaCl, and 5 mmol/L KCl to prepare a membrane preparation. The test compound (1-10 μmol/L DMSO solution), the membrane preparation, and 0.4 nmol/L [^3H]Paroxetin were mixed and incubated at 25° C. for 60 minutes. The cell membrane-[^3H]Paroxetin complex was bound to a GF/B filter mat by vacuum filtration and washed with 50 mmol/L Tris-HCl (pH 7.4). The effect on the receptor was assessed by measuring radioactivity using a scintillation counter.

[5] = Pharmacokinetic study in mice; type: in vivo
Method: The test compound was administered to 7-week-old female BALE/c (BALB/cAnN CrlCrlj) mice intravenously (dosage: 1 mg/kg) in a 50% PEG solution (0.01 mol/L HCl) or orally (dosage: 10 mg/kg) in a 0.5% methylcellulose aqueous solution, and blood was collected at the following times: • Intravenous administration: 5 min, 15 min, 30 min, 1 hr, 2 hr, 4 hr, 6 hr, and 24 hr after administration • Oral administration: 15 min, 30 min, 1 hr, 2 hr, 4 hr, 6 hr, and 24 hr after administration
The collected blood was centrifuged at 3000 rpm×10 min using a refrigerated centrifuge set at 4° C., and the obtained plasma was measured by LC-MS. A calibration curve was prepared from the value (peak ratio) obtained by dividing the peak area of the test substance by the peak area of the internal standard substance in MS and the concentration of the plasma calibration curve sample. The concentration in the sample was calculated from the peak ratio and the calibration curve of each sample.

[6] = Solubility test; type: physicochemical; settings: pH 2.0 and pH 3.0 buffers
Method: The solubility was measured for Examples 7, 10, 20, 23, 24, and 30 to 34, Comparative Example 1, and Comparative Example 2. The test compound was added to 10 mmol/L glycine buffer (pH 2.0) and 10 mmol/L citrate buffer (pH 3.0), and the mixture was stored in a thermostatic chamber at 5° C. After standing overnight, the mixture was filtered through a membrane filter, and the concentration of the filtrate was measured by HPLC.
The HPLC measurement conditions are as follows.
HPLC conditions • Column: Acquity UPLC BEH C18, 1.7 μm, 50×2.1 mm • Column temperature: 40° C. • Mobile phase: A: 0.1% trifluoroacetic acid-containing water • B: acetonitrile • A/B (min): 95/5 (0)→0/100 (3.5)→0/100 (4)→95/5 (4.01)→95/5 (5) • Flow rate: 0.8 mL/min • Detection: UV visible detector, measurement wavelength 254 nm • Injection volume: 5 μL or • Column: Acquity UPLC BEH C18, 1.7 μm, 50×2.1 mm • Column temperature: 40° C. • Mobile phase: A: 0.1% trifluoroacetic acid-containing water • B: acetonitrile • A/B (min): • 80/20 (0)→40/60 (3.0)→0/100 (3.5)→0/100 (4)→80/20 (4.01)→80/20 (5) • Flow rate: 0.8 mL/min • Detection: UV visible detector, measurement wavelength 254 nm • Injection volume: 2 μL or • Column: Acquity UPLC BEH C18, 1.7 μm, 50×2.1 mm • Column temperature: 40° C. • Mobile phase: A: 0.1% trifluoroacetic acid-containing water • B: acetonitrile • A/B (min): • 80/20 (0)→40/60 (3.0)→0/100 (3.5)→0/100 (4)→100/0 (4.01)→100/0 (5) • Flow rate: 0.8 mL/min • Detection: UV visible detector, measurement wavelength 254 nm • Injection volume: 3 μL

[7] = system: G-401 cells; assay: Cell proliferation inhibition experiment using G-401 cells; type: cell-based
Method: G-401 cells (derived from malignant rhabdoid tumor) were obtained from the American Type Culture Collection (ATCC). G-401 cells were cultured in McCoy's 5A medium containing 10% fetal bovine serum and 1% penicillin/streptomycin under conditions of 37° C. and 5% CO2.
500 cells per well were seeded in a 384-well plate. One day after seeding, Examples 1 to 35 were added so that the final concentration of DMSO was 0.1%, and the cells were cultured for 3 days. After the culture was completed, the cell viability was measured using CellTiter-Glo Luminescent Cell Viability Assay (Promega, G7570).

[8] = biological target: recombinant p300 (Homo sapiens (Human), UniProt Q09472); assay: HAT activity inhibition experiment (SensoLyte HAT(p300) Assay Kit); type: biochemical
Method: The HAT activity inhibitory ability of HAT inhibitors was evaluated using SensoLyte HAT(p300) Assay Kit (ANASPEC, AS-72172). Specifically, 7.5 μL of the compound of Examples […] diluted with assay buffer was added to 7.5 μL of recombinant p300 solution diluted 10 times with assay buffer, and the mixture was incubated at room temperature for 10 minutes. 7.5 μL of acetyl CoA solution diluted 10 times with assay buffer and 15 μL of histone H3 peptide diluted 10 times with assay buffer were added thereto, and the mixture was incubated at 37° C. for 30 minutes. 37.5 μL of Stop Solution was added to stop the reaction. 75 μL of p300 Developer solution diluted 50 times with assay buffer was added, and the mixture was incubated at room temperature for 30 minutes under light-shielded conditions. The fluorescence at 513 nm when irradiated with 389 nm excitation light was measured using a multiplate reader.

Sequence of hDAT (Q01959 whole entry): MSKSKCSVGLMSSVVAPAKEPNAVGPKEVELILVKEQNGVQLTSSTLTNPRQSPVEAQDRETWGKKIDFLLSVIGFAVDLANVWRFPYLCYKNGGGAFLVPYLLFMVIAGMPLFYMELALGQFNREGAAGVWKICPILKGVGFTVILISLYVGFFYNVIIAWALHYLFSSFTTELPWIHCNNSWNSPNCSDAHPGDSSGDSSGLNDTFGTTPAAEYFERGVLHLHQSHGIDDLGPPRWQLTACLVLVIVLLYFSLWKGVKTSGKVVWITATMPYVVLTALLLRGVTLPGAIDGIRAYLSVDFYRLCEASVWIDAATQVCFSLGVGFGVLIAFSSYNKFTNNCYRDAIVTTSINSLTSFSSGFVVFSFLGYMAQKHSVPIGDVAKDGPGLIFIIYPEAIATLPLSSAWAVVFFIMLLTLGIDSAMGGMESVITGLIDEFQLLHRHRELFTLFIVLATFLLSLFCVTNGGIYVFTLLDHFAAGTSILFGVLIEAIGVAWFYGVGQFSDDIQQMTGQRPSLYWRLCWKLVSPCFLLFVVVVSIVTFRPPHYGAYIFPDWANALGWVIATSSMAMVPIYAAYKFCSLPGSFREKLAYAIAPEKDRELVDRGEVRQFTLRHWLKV
Sequence of hSERT (P31645 whole entry): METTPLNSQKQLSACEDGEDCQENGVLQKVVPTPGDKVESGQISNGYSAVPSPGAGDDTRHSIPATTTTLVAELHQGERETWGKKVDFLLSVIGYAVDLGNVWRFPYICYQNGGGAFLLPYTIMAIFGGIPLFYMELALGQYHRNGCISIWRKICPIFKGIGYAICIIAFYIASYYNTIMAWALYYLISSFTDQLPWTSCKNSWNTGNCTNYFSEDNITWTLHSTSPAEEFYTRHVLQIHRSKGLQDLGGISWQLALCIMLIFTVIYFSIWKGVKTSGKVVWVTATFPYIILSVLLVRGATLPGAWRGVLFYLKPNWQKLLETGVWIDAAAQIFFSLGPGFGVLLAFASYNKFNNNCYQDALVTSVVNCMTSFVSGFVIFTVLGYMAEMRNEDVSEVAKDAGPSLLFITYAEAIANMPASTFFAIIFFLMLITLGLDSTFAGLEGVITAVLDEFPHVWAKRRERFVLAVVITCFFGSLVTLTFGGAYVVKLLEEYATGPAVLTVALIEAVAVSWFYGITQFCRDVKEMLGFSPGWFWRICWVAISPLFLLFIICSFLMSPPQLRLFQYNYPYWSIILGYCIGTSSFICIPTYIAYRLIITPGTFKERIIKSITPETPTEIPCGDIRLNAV
Sequence of recombinant p300 (Q09472 whole entry): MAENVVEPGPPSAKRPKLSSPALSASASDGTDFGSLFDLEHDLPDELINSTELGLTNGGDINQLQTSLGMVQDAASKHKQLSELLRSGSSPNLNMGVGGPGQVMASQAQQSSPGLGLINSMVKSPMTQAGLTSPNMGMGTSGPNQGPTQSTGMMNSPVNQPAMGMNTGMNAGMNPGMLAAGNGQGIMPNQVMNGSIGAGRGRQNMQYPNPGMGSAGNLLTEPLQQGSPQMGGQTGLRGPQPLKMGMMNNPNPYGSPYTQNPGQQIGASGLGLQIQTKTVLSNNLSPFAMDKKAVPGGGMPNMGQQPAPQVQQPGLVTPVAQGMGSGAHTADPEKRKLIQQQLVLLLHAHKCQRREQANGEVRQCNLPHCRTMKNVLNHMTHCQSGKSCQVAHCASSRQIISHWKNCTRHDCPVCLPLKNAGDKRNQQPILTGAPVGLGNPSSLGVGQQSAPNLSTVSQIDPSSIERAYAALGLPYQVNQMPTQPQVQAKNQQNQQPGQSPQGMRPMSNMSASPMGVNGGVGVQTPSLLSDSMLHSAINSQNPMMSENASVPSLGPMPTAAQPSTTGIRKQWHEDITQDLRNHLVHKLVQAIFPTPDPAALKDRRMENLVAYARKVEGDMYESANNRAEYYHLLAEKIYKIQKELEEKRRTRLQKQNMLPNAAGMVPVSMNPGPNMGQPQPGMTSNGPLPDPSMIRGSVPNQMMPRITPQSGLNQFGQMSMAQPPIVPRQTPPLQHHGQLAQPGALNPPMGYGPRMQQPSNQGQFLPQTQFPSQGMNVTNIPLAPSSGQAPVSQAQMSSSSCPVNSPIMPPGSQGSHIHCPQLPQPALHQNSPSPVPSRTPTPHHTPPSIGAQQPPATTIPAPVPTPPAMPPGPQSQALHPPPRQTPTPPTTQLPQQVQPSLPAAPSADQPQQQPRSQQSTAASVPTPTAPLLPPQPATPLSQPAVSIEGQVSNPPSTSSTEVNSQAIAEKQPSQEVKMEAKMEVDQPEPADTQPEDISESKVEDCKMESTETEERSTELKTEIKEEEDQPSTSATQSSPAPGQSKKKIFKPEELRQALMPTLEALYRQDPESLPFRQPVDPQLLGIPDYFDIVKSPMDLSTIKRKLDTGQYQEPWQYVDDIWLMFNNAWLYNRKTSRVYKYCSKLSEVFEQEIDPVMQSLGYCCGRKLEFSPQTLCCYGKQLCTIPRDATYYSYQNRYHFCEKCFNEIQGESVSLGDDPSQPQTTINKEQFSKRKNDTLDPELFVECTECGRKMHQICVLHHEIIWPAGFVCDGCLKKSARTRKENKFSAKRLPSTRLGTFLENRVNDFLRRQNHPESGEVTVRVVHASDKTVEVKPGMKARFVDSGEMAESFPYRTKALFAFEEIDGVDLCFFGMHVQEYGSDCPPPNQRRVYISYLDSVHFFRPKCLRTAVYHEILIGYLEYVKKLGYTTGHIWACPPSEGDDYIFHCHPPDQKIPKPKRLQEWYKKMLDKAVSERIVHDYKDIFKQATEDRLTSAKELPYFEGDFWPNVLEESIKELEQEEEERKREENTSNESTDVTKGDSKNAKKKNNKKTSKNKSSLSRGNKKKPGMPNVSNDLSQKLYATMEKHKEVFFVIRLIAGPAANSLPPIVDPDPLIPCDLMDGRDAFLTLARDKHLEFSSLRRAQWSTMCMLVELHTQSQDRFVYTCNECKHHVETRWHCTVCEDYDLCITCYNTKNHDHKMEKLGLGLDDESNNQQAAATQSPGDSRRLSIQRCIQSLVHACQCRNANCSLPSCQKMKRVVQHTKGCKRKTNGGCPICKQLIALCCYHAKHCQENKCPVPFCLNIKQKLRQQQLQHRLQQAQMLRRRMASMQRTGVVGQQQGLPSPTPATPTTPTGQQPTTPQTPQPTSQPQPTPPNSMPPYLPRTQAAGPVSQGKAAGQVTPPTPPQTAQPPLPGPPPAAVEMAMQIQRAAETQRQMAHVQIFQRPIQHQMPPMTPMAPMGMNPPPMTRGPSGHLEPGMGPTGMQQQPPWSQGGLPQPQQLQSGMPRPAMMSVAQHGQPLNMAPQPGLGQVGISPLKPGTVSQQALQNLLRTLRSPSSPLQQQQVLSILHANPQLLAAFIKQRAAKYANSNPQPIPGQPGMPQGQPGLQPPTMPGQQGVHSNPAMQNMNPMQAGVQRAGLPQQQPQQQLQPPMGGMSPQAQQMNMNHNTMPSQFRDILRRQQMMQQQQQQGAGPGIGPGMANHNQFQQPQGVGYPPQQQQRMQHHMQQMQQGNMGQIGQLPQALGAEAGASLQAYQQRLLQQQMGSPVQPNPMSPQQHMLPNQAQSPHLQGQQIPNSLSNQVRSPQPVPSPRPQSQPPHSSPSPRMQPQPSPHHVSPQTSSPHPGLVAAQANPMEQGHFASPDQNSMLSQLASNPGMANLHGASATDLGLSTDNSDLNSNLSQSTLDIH

HAT activity inhibition (in words) [8]	SMILES	Inhibitory effect on dopamine receptors (in words) [1]	Antitumor effect, intravenous administration (in words) [2]	Antitumor effect, oral administration (in words) [3]	Inhibitory effect on serotonin receptors (in words) [4]	Pharmacokinetics (in words) [5]	Solubility (in words) [6]	Cell proliferation inhibitory effect on G-401 cells (in words) [7]
–	CN1CC(N(Cc2ccc(F)cc2)C(=O)CN2C(=O)N[C@]3(C[C@@H](F)c4cc(-c5cnn(C)c5)ccc43)C2=O)(C(F)(F)F)C1 [Example 10, 2-[(1′S,3′R)-3′-fluoro-5′-(1-methyl-1H-pyrazol-4-yl)-2,5-dioxo-2′,3′-dihydrospiro[imidazolidine-4,1′-inden]-1-yl]-N-[(4-fluorophenyl)methyl]-N-[1-methyl-3-(trifluoromethyl)azetidin-3-yl]acetamide]	did not show strong inhibitory activity	strong antitumor effects	strong antitumor effects	did not show strong inhibitory activity	excellent pharmacokinetics	high solubility	–
–	CN1CC(N(Cc2ccc(F)cc2)C(=O)CN2C(=O)N[C@]3(C[C@@H](F)c4cc(-c5cnn(C6CCOCC6)c5)ccc43)C2=O)(C(F)(F)F)C1 [Example 19, 2-{(1′S,3′R)-3′-fluoro-5′-[1-(oxan-4-yl)-1H-pyrazol-4-yl]-2,5-dioxo-2′,3′-dihydrospiro[imidazolidine-4,1′-inden]-1-yl}-N-[(4-fluorophenyl)methyl]-N-[1-methyl-3-(trifluoromethyl)azetidin-3-yl]acetamide]	–	–	–	–	–	–	strong cell proliferation inhibitory effect
strong inhibition of HAT activity	CN1CC(N(Cc2ccc(F)cc2)C(=O)CN2C(=O)N[C@]3(C[C@@H](F)c4cc(-c5cnn(C)c5F)ccc43)C2=O)(C(F)(F)F)C1 [Example 15, 2-[(1′S,3′R)-3′-fluoro-5′-(5-fluoro-1-methyl-1H-pyrazol-4-yl)-2,5-dioxo-2′,3′-dihydrospiro[imidazolidine-4,1′-inden]-1-yl]-N-[(4-fluorophenyl)methyl]-N-[1-methyl-3-(trifluoromethyl)azetidin-3-yl]acetamide]	–	–	–	–	–	–	strong cell proliferation inhibitory effect
strong inhibition of HAT activity	CN1CC(N(Cc2ccc(F)cc2)C(=O)CN2C(=O)N[C@]3(C[C@@H](F)c4cc(-c5cn(C)nc5F)ccc43)C2=O)(C(F)(F)F)C1 [Example 17, 2-[(1′S,3′R)-3′-fluoro-5′-(3-fluoro-1-methyl-1H-pyrazol-4-yl)-2,5-dioxo-2′,3′-dihydrospiro[imidazolidine-4,1′-inden]-1-yl]-N-[(4-fluorophenyl)methyl]-N-[1-methyl-3-(trifluoromethyl)azetidin-3-yl]acetamide]	–	–	–	–	–	–	strong cell proliferation inhibitory effect
–	CN1CC(N(Cc2ccc(F)cn2)C(=O)CN2C(=O)N[C@]3(C[C@@H](F)c4cc(-c5cnn(C)c5)ccc43)C2=O)(C(F)(F)F)C1 [Example 20, 2-[(1′S,3′R)-3′-fluoro-5′-(1-methyl-1H-pyrazol-4-yl)-2,5-dioxo-2′,3′-dihydrospiro[imidazolidine-4,1′-inden]-1-yl]-N-[(5-fluoropyridin-2-yl)methyl]-N-[1-methyl-3-(trifluoromethyl)azetidin-3-yl]acetamide]	did not show strong inhibitory activity	strong antitumor effects	strong antitumor effects	did not show strong inhibitory activity	excellent pharmacokinetics	high solubility	strong cell proliferation inhibitory effect
–	O=C1N[C@]2(C[C@@H](F)c3cc(-c4cnn(C5CCN(C6COC6)CC5)c4)ccc32)C(=O)N1CC(=O)N(Cc1ccc(F)cn1)C1(C(F)(F)F)COC1 [Example 23, 2-[(1′S,3′R)-3′-fluoro-5′-{1-[1-(oxetan-3-yl)piperidin-4-yl]-1H-pyrazol-4-yl}-2,5-dioxo-2′,3′-dihydrospiro[imidazolidine-4,1′-inden]-1-yl]-N-[(5-fluoropyridin-2-yl)methyl]-N-[3-(trifluoromethyl)oxetan-3-yl]acetamide]	did not show strong inhibitory activity	strong antitumor effects	strong antitumor effects	did not show strong inhibitory activity	excellent pharmacokinetics	high solubility	–
